# Read-outs that look alike come from different tables or passages of the source.
# Key:
# Format in all cases: cell-based
# S. aureaus FDA-209P = test: MIC against S. aureaus FDA-209P by the plate diluted method; conditions: Staphylococcus aureus, FDA209P
# Protocol: (§1) In order to investigate the in vitro activity of the test compounds against various bacteria, the minimal inhibitory concentration (MIC) values were determined by the plate diluted method (See CHEMOTHERAPY, 22, 1126-1128, 1974.)
# (§2) Each strain was adjusted to 1×10^6 cells/ml (O.D. 600 mμ, 0.07 to 0.16).
# E. coli NIHJ JC-2 = test: MIC against E. coli NIHJ JC-2 by the plate diluted method; conditions: Escherichia coli, NIHJJC2
# Protocol: as §1, §2
# K. pneumoniae NCTC-9632 = test: MIC against K. pneumoniae NCTC-9632 by the plate diluted method; conditions: Klebsiella pneumoniae, NCTC9632
# Protocol: as §1, §2
# M. moganii IIDkono = test: MIC against M. moganii IIDkono by the plate diluted method
# Protocol: as §1, §2
# S. marcescens IFO 12648 = test: MIC against S. marcescens IFO 12648 by the plate diluted method; conditions: Serratia marcescens, IFO12648
# Protocol: as §1, §2
# A. calcoaceticus Ac-54 = test: MIC against A. calcoaceticus Ac-54 by the plate diluted method; conditions: Acinetobacter calcoaceticus, AC54
# Protocol: as §1, §2
# P. aeruginosa ATCC-10145 = test: MIC against P. aeruginosa ATCC-10145 by the plate diluted method; conditions: Pseudomonas aeruginosa, ATCC10145
# Protocol: as §1, §2
# P. aeruginosa E-2 = test: MIC against P. aeruginosa E-2 by the plate diluted method; conditions: Pseudomonas aeruginosa, E2
# Protocol: as §1, §2
# E. coli No. 29 = test: MIC against E. coli No. 29 by the plate diluted method; conditions: Escherichia coli, 1×10^6 cells/ml
# Protocol: as §1, §2
# [1] = S. aureaus FDA-209P, 1×10^6 cells/ml, read-out: MIC
# [2] = K. pneumoniae NCTC-9632, 1×10^6 cells/ml, read-out: MIC
# [3] = M. moganii IIDkono, 1×10^6 cells/ml, read-out: MIC
# [4] = S. marcescens IFO 12648, 1×10^6 cells/ml, read-out: MIC
# [5] = A. calcoaceticus Ac-54, 1×10^6 cells/ml, read-out: MIC
# [6] = P. aeruginosa ATCC-10145, 1×10^6 cells/ml, read-out: MIC
# [7] = P. aeruginosa E-2, 1×10^6 cells/ml, read-out: MIC
# [8] = E. coli NIHJ JC-2, 1×10^6 cells/ml, read-out: MIC
MIC (M. moganii IIDkono; [3]) [µg/mL],Compound,MIC (S. aureaus FDA-209P) [µg/mL],MIC (E. coli NIHJ JC-2) [µg/mL],MIC (K. pneumoniae NCTC-9632) [µg/mL],MIC (M. moganii IIDkono) [µg/mL],MIC (S. marcescens IFO 12648) [µg/mL],MIC (A. calcoaceticus Ac-54) [µg/mL],MIC (P. aeruginosa ATCC-10145) [µg/mL],MIC (P. aeruginosa E-2) [µg/mL],MIC (S. aureaus FDA-209P; [1]) [µg/mL],MIC (E. coli No. 29) [µg/mL],MIC (K. pneumoniae NCTC-9632; [2]) [µg/mL],MIC (S. marcescens IFO 12648; [4]) [µg/mL],MIC (A. calcoaceticus Ac-54; [5]) [µg/mL],MIC (P. aeruginosa ATCC-10145; [6]) [µg/mL],MIC (P. aeruginosa E-2; [7]) [µg/mL],MIC (E. coli NIHJ JC-2; [8]) [µg/mL]
–,"CC(C)(O/N=C(\C(=O)N[C@@H]1C(=O)N2C(C(=O)[O-])=C(C[n+]3ccccc3)CS[C@H]12)c1csc(N)n1)C(=O)O [CAZ, Ceftazizime, reference compound]",3.13,0.2,0.05,0.05,0.024,1.56,0.78,1.56,–,–,–,–,–,–,–,–
0.024,"Cc1nc(SCC2=C(C(=O)O)N3C(=O)[C@@H](NC(=O)/C(=N\OCc4cc(=O)c(O)cn4O)c4csc(N)n4)[C@H]3CS2)sc1CC(=O)O [No. 13, (6S,7S)-7-[(Z)-2-(2-aminothiazol-4-yl)-2-(1,5-dihydroxy-4-pyridone-2-ylmethoxyimino)acetamide]-3-[(5-carboxymethyl-4-methyl-thiazol-2-yl)thiomethyl]isocephem-4-carboxylic acid]",–,–,–,–,–,–,–,–,100,0.012,≤ 0.006,0.012,0.012,0.05,0.05,–
–,CC(C)(O/N=C(\C(=O)N[C@@H]1C(=O)N2C(C(=O)[O-])=C(CSc3cc[n+](Cc4cc(=O)c(O)c[nH]4)cc3)CS[C@H]12)c1csc(N)n1)C(=O)O [No. 14],–,–,–,0.05,–,–,–,–,6.25,0.05,0.012,0.024,0.39,0.2,0.1,–
–,"CC(C)(O/N=C(\C(=O)N[C@@H]1C(=O)N2C(C(=O)[O-])=C(CSc3cc[n+](CC(=O)NNC(=O)c4ccc(O)c(O)c4)cc3)CS[C@H]12)c1csc(N)n1)C(=O)O [No. 15, (6R,7R)-7-[(Z)-2-(2-aminothiazol-4-yl)-2-(1-carboxy-1-methylethoxy)imino]acetamide-3-[1-(N-3,4-dihydroxybenzamide)carbamoylmethyl-4-pyridinio]thiomethyl-3-cephem-4-carboxylate]",3.13,–,–,0.05,–,–,–,–,–,0.012,0.012,0.05,0.1,0.05,0.05,–
0.1,"CO/N=C(\C(=O)N[C@@H]1C(=O)N2C(C(=O)[O-])=C(CSc3cc[n+](CC(=O)c4ccc(O)c(O)c4)cc3)CS[C@H]12)c1csc(N)n1 [No. 17, (6R,7R)-[(Z)-2-(2-aminothiazol-4-yl)-2-methoxyiminoacetamide]-3-[[1-[2-(3,4-dihydroxyphenyl)-2-oxo]ethyl]-4-pyridinio]thiomethyl-3-cephem-4-carboxylat]",–,–,–,–,–,–,–,–,0.39,0.012,0.012,0.05,0.1,0.2,0.39,–
–,"Cc1nc(SCC2=C(C(=O)O)N3C(=O)[C@@H](NC(=O)/C(=N\OCc4cc(=O)c(O)cn4O)c4nsc(N)n4)[C@H]3CS2)sc1CC(=O)O [No. 18, (6S,7S)-7-[(Z)-2-(5-amino-1,2,4-thiadiazol-3-yl)-2-(1,5-dihydroxy-4-pyridone-2-ylmethoxyimino)acetamide]-3-(5-carboxymethyl-4-methylthiazol-2-ylthiomethyl)isocephem-4-carboxylic acid]",–,–,–,0.05,–,–,–,–,100,–,0.024,0.024,0.1,0.1,0.1,0.1
–,"Cc1nc(SCC2=C(C(=O)O)N3C(=O)[C@@H](NC(=O)/C(=N\OCc4cc(=O)c(O)cn4O)c4nsc(N)n4)[C@H]3SC2)sc1CC(=O)O [No. 19, (6R,7R)-7-[(Z)-2-(5-amino-1,2,4-thiadiazol-3-yl)-2-(1,5-dihydroxy-4-pyridone-2-ylmethoxyimino)acetamide]-3-(5-carboxymethyl-4-methylthiazol-2-ylthiomethyl)-3-cephem-4-carboxylic acid]",–,–,–,0.05,–,–,–,–,100,–,0.024,0.024,0.05,0.05,0.1,0.1
0.024,"Nc1nc(/C(=N/OCc2cc(=O)c(O)cn2O)C(=O)N[C@@H]2C(=O)N3C(C(=O)O)=C(CSc4nnnn4CC(=O)O)SC[C@H]23)ns1 [No. 20, (6S,7S)-7-[(Z)-2-(5-amino-1,2,4-thiadiazol-3-yl)-2-(1,5-dihydroxy-4-pyridone-2-ylmethoxyimino)acetamide]-3-(1-carboxymethyl-1H-tetrazol-5-ylthiomethyl)-isocephem-4-carboxylic acid]",–,–,–,–,–,–,–,–,100,–,0.012,0.012,0.05,0.05,0.05,0.05
0.024,"Nc1nc(/C(=N/OCc2cc(=O)c(O)cn2O)C(=O)N[C@@H]2C(=O)N3C(C(=O)O)=C(CSc4nnnn4CC(=O)O)CS[C@H]23)ns1 [No. 21, (6R,7R)-7-[(Z)-2-(5-amino-1,2,4-thiadiazol-3-yl)-2-(1,5-dihydroxy-4-pyridone-2-ylmethoxyimino)acetamide]-3-(1-carboxymethyl-1H-tetrazole-5-ylthiomethyl)-3-cephem-4-carboxylic acid]",–,–,–,–,–,–,–,–,100,–,0.012,0.012,0.05,0.1,0.1,0.1
–,"Nc1nc(/C(=N/OCc2cc(=O)c(O)cn2O)C(=O)N[C@@H]2C(=O)N3C(C(=O)O)=C(CSc4snc(O)c4C(=O)O)SC[C@H]23)ns1 [No. 22, (6S,7S)-7-[(Z)-2-(5-amino-1,2,4-thiadiazol-3-yl)-2-(1,5-dihydroxy-4-pyridone-2-ylmethoxyimino)acetamide]-3-(4-carboxy-3-hydroxyisothiazol-5-ylthiomethyl) isocephem-4-carboxylic acid]",–,–,–,0.05,–,–,–,–,100,–,0.012,0.012,0.1,0.1,0.2,0.05
–,"Nc1nc(/C(=N/OCc2cc(=O)c(O)cn2O)C(=O)N[C@@H]2C(=O)N3C(C(=O)O)=C(CSc4snc(O)c4C(=O)O)CS[C@H]23)ns1 [No. 23, (6R,7R)-7-[(Z)-2-(5-amino-1,2,4-thiadiazol-3-yl)-2-(1,5-dihydroxy-4-pyridone-2-ylmethoxyimino)acetamide]-3-(4-carboxy-3-hydroxyiso-thiazol-5-ylthiomethyl)-3-cephem-4-carboxylic acid]",–,–,–,0.05,–,–,–,–,100,–,0.024,0.024,0.1,0.1,0.1,0.1
0.024,"Nc1nc(/C(=N/OCc2cc(=O)c(O)cn2O)C(=O)N[C@@H]2C(=O)N3C(C(=O)[O-])=C(CSc4cc[n+](CC(=O)O)cc4)SC[C@H]23)ns1 [No. 24, (6S,7S)-7-[(Z)-2-(5-amino-1,2,4-thiadiazol-3-yl)-2-(1,5-dihydroxy-4-pyridone-2-ylmethoxyimino)acetamide]-3-(1-carboxymethylpyridinium-4-ylthiomethyl)isocephem-4-carboxylate]",–,–,–,–,–,–,–,–,12.5,–,0.024,0.024,0.39,0.1,0.2,0.1
–,"Nc1nc(/C(=N/OCc2cc(=O)c(O)cn2O)C(=O)N[C@@H]2C(=O)N3C(C(=O)[O-])=C(CSc4cc[n+](CC(=O)O)cc4)CS[C@H]23)ns1 [No. 25, (6R,7R)-7-[(Z)-2-(5-amino-1,2,4-thiadiazol-3-yl)-2-(1,5-dihydroxy-4-pyridone-2-ylmethoxyimino)acetamide]-3-(1-carboxymethylpyridinium-4-ylthiomethyl)-3-cephem-4-carboxylate]",–,0.2,–,0.05,–,–,–,–,6.25,–,0.024,0.024,0.39,0.1,0.2,–

Compound,MIC (M. moganii IIDkono; [3]) [µg/mL],MIC (S. aureaus FDA-209P) [µg/mL],MIC (E. coli NIHJ JC-2) [µg/mL],MIC (K. pneumoniae NCTC-9632) [µg/mL],MIC (M. moganii IIDkono) [µg/mL],MIC (S. marcescens IFO 12648) [µg/mL],MIC (A. calcoaceticus Ac-54) [µg/mL],MIC (P. aeruginosa ATCC-10145) [µg/mL],MIC (P. aeruginosa E-2) [µg/mL],MIC (S. aureaus FDA-209P; [1]) [µg/mL],MIC (E. coli No. 29) [µg/mL],MIC (K. pneumoniae NCTC-9632; [2]) [µg/mL],MIC (S. marcescens IFO 12648; [4]) [µg/mL],MIC (A. calcoaceticus Ac-54; [5]) [µg/mL],MIC (P. aeruginosa ATCC-10145; [6]) [µg/mL],MIC (P. aeruginosa E-2; [7]) [µg/mL],MIC (E. coli NIHJ JC-2; [8]) [µg/mL]
"CC(C)(O/N=C(\C(=O)N[C@@H]1C(=O)N2C(C(=O)[O-])=C(CSc3cc[n+](CC(=O)c4ccc(O)c(O)c4)cc3)CS[C@H]12)c1csc(N)n1)C(=O)O [No. 16, (6R,7R)-7-[(Z)-2-(2-aminothiazol-4-yl)-2-(1-carboxy-1-methylethoxy)iminoacetamide]-3-[[1-[2-(3,4-dihydroxyphenyl)-2-oxo]ethyl]-4-pyridinio]thiomethyl-3-cephem-4-carboxylate]",0.05,1.56,–,–,–,–,–,–,–,–,0.012,0.012,0.024,0.05,0.1,0.1,–

# Source: patent publication US5262411A, “Isocephem derivatives, and antimicrobial composition containing the derivatives” (Otsuka Pharmaceutical Co., Ltd., priority 1989, dated 1993)
